Results reported in patent US11912785B2, “Peptide compositions for slowing degradation of vitamin mineral supplements, foods, pharmaceutical and cosmetics” (priority 2017, dated 2024).
No end group written: not given here.

Experiments:
[1] = Decay of 5-MTHF in HEPES pH 7.2 with cupric sulfate and peptide; format: physicochemical; conditions: for half-life of 5-MTHF: 150 μM cupric sulfate
Experimental: (§1) Aqueous solutions of air saturated buffer, peptide, one or more vitamins, and metal salt (e.g. ferrous chloride or cupric sulfate) were combined and incubated at 37 C, unless otherwise stated. Samples were injected into the HPLC system as a function of time and monitored by a photodiode array detector.

[2] = USP type 2 dissolution of Product #1a with peptide in the medium; conditions: for ascorbic acid recovered / maintained (in words): 0.25 mM, 45 min
Experimental: (§2) The dissolution studies described herein used a U.S. Pharmacopeia (USP) type 2 apparatus with 500 ml distilled H2O at 37° C. stirred at 50 RPM. […] Oxygen concentration was monitored with a Clarke electrode calibrated against argon and air sparged water at 37 C. The disappearance of several components was gauged against a mixture of pure standards of known concentration.
Product #1a also contained caffeine.

[3] = USP type 2 dissolution of Product #1b with copper added as CuSO4 and peptide; format: physicochemical
Experimental: as §2

[4] = Decomposition of 5-MTHF in 1 mM HCl with cupric sulfate; format: physicochemical; conditions: 3 mM peptide, 150 μM cupric sulfate, 37 C
Experimental: The decomposition of 5-MTHF is slower in acidic solutions than at neutral pH, and this was found even in the presence of cupric ions. […] With 3 mM 1,1,1-triaspartic free acid also present the time to half decomposition was increased to around 30 minutes.

[5] = Effect of cupric sulfate on folic acid plus sodium ascorbate in various buffers; conditions: for initial ascorbate lost after 2 hours: 10 mM HEPES pH 7.2, 150 μM cupric sulfate
Experimental: as §1
Reactions were continuously but slow sparged with air so that oxygen would not become limiting.

[6] = Effect of cupric sulfate on vitamin B12, thiamine, folic acid and sodium ascorbate in MES pH 6.2; format: physicochemical; conditions: 3 mM peptide; 10 mM MES pH 6.2, 150 μM cupric sulfate
Experimental: In the presence of 3 mM 1,1,1-triaspartate (as the tetra-sodium salt) the loss of Vitamin B12 was limited to about 20% even after 2 hours. Thiamine also rapidly disappeared by 40% over the first 26 minutes and then remained constant in the absence of an aspartate peptide. However, with 3 mM Asp-Asp-Asp included only 8% was lost at 36 min.

[7] = Water uptake and handling of peptide salts on exposure to atmosphere or humidity; format: physicochemical; conditions: for handling state after exposure to the atmosphere / weight gain (water) when left open to the atmosphere: ambient
Experimental: One such matrix is microcrystalline cellulose which is commonly used as an excipient in vitamin and mineral products. A method of combining the peptide salt with the excipient was also developed in which the former is dissolved in a suitable solvent, for example water, the excipient added with stirring, and removing the solvent from the mixture, for example by rotary evaporation under reduced pressure or lyophilization.
The resulting material was crushed to pass through a 200 mesh sieve.
The precipitate was resuspended in 0.5 ml ice-cold water, centrifuged again, and the second supernate discarded.
The precipitate was resuspended in 0.5 ml ice-cold water, recentrifuged, and the second supernate discarded. […] This was centrifuged and dried under high vacuum over P2O5.

[8] = product #2; 1 mM peptide
Experimental: as §2

[9] = 3 mM peptide, 3 mM ferrous chloride, 40 mM MES pH 6.2
Experimental: as §1

[10] = Decay of sodium ascorbate in HEPES pH 7.2 with 63 μM cupric sulfate; format: physicochemical
Experimental: Example 11 The effect of 1,1,1-Ala-Asp-Asp on the decay of sodium ascorbate in 10 mM HEPES pH 7.2 at 37 was compared with 1,1,1-triaspartate in the presence of 63 μM cupric sulfate (equivalent to 2 mg of elemental copper per 500 mL). […] This difference is somewhat offset by the ˜12% lower molecular weight of the former.

[11] = 2 mM peptide, 25 μM 5-MTHF, 10 mM HEPES pH 7.2, 37 C
[12] = 3 mM peptide, 50 mM MES pH 5.5, 150 μM cupric sulfate

For “penta-sodium 1,1,1,1-tetraaspartate (DDDD; also: penta-sodium salt)”, the “effectiveness compared with triaspartic acid on a molar basis” value [1] was “just as effective on a molar basis” and the “half-life of 5-MTHF” value [1, 11] was 2.97 h.

With “tri-sodium 1,1,1-His-Asp-Asp [reference compound]” the “maintenance of ascorbate or thiamine, diminishing oxygen consumption, or oxidation of other components” value ([2]; Product #1a, 0.25 mM peptide, pH ~6.5) was “No improvement”.

For “N-acetyl-1,1,1-triaspartic acid [reference compound]”, the “ability to inhibit oxidative destruction of other multivitamin components” value ([2]; test conditions not stated) was “lack of effectiveness”.

With Asp-Asp-Asp the “extent of caffeine oxidation to 1,3,7-trimethyluric acid compared with no peptide” value ([2]; Product #1a, 0.25 mM peptide) was “more than halved”, the “folic acid in filtrate, of the labeled amount, 10 minute sample” value ([2]; Product #1a, 0.25 mM peptide) was “about 55%” and the “folic acid in filtrate, of the labeled amount, 45 minute sample” value ([2]; Product #1a, 0.25 mM peptide) was “about 70%”. For the same molecule, the “p-aminobenzoyl-glutamate in the final sonicated sample compared with absence of peptide” value ([2]; Product #1a, 0.25 mM peptide) was “decreased to half”, the “thiamine present at 45 minutes, of labeled content” value ([2]; Product #1a, 0.25 mM peptide) was 104% and the “thiamine present at 45 minutes, of the actual content of the tablets” value ([2]; Product #1a, 0.25 mM peptide) was 83%. The “concentration required for half maximal effect in preventing loss of ascorbate” value ([3]; 1 mg of copper added as CuSO4, compared with 2 mg) was “somewhat lower concentration”, the EC50 ([3]; copper added as CuSO4, peptide 0.05 to 0.5 mM, hyperbolic fit, read-out: concentration required for 50% of maximal effectiveness in preventing ascorbate loss) was roughly 50 µM and the “half-life of 5-MTHF (in words)” value ([1]; 0.5 mM peptide) was “longer than Asp2”. For the same molecule, the “time to half decomposition of 5-MTHF” value [4] was “around 30 minutes”, the “folic acid recovered after 82 minutes” value [5, 12] was “more than 50%” and the “time until ascorbate completely consumed” value [5, 12] was 47 min. For the same molecule, the “thiamine lost at 36 min” value [6] was 8%.

In the case of “Calcium1.5-1,1,1-triaspartate [Example D]”, the “handling state after 24 hours at 90% RH” value ([7]; 90% RH, 24 hours) is reported as “clumped slightly, but was easy to break up and was not sticky”, the “handling state after exposure to the atmosphere” value ([7]; open to the atmosphere) is reported as “remained free flowing flakes that were never sticky” and the “weight gain (water) when left open to the atmosphere” value (from here on “weight gain (water) when left open”) ([7]; open to the atmosphere) is reported as roughly 10%.

In the case of tri-sodium 1,1-diaspartate, the “profile of folic acid appearance in solution” value ([2]; Product #1a, 0.25 mM peptide) is reported as “greater than without any peptide, and similar to that liberated by 0.05 mM Asp-Asp-Asp”, the “profile of p-aminobenzoyl-glutamate formation” value ([2]; Product #1a, 0.25 mM peptide) is reported as “suppressed in comparison to without any peptide, and similar to 0.05 mM Asp-Asp-Asp” and the “profile of thiamine appearance in solution” value ([2]; Product #1a, 0.25 mM peptide) is reported as “not significantly different than without peptide”. The “rate of oxygen consumption compared with no peptide” value (shortened to “rate … compared with no peptide”) ([2]; Product #1a, 0.25 mM peptide) was “less than without a peptide”, the “ascorbic acid recovered / maintained (in words)” value ([2]; Product #1a) was “greater than with no Asp2 but somewhat less than in the presence of 0.25 mM Asp-Asp-Asp” and the “half-life of 5-MTHF” value [1, 11] was 1.2 h. For the same molecule, the “half-life of 5-MTHF” value ([1]; 3 mM peptide, HEPES pH 7.2, 37 C) was 1.45 h and the “half-life of 5-MTHF” value ([1]; 4 mM peptide, HEPES pH 7.2, 37 C) was 1.67 h.

In the case of N[C@@H](CC(=O)O)C(=O)O [aspartic acid, reference compound], the “rate … compared with no peptide” value ([2]; Product #1a, 0.25 mM peptide) is reported as “no improvement” and the “ascorbic acid recovered / maintained (in words)” value ([2]; Product #1a) is reported as “no improvement”.

In the case of Ferrous 1,1,1-triaspartate [Example P], the “color / oxidation when open to air via a drying tube” value ([7]; open to air via a drying tube) is reported as “did not change color or significantly oxidize”, the “weight gain (water) when left open” value ([7]; open to the atmosphere) is reported as 13% and the “color / oxidation when kept open to the atmosphere” value ([7]; open to the atmosphere, several days) is reported as “became dark brown due to partial oxidation to iron(III)”.

With “Asp-Asp-Asp tetrasodium salt [tetra-sodium 1,1,1-triaspartate, Tetra-sodium-1,1,1-triaspartate]” the “ascorbic acid recovered after 45 min, higher than with water only” value ([2]; Product #1a, 0.125 mmole peptide in 500 mL (0.25 mM), initial pH ~6.5, 37° C.) was “about 16 fold”, the “oxygen remaining after 45 min, part of the original concentration” value ([2]; Product #1a, 0.25 mM peptide) was “about a third” and the “rate … compared with no peptide” value ([2]; Product #1a, 0.25 mM peptide) was “dramatically decreased”. For the same molecule, the “increase of average recovery of ascorbic acid at 45 minutes over no peptide” value [8] was 16%, the “increase of average recovery of thiamine at 45 minutes over no added peptide” value [8] was 20% and the “half-life of 5-MTHF” value [1, 11] was 3.3 h. For the same molecule, the “time without significant loss of 5-MTHF” value [9] was “about 50 minutes”, the “decrease of 5-MTHF thereafter” value ([9]; after about 50 minutes) was “about 17 % per hour” and the “initial ascorbate lost after 2 hours” value ([5]; 1 mM peptide) was 33%. For the same molecule, the “initial ascorbate lost after 2 hours” value ([5]; 3 mM peptide) was 18%, the “ascorbate remaining by 32 minutes” value ([5]; 3 mM peptide, 10 mM MES pH 6.2, 150 μM cupric sulfate, air sparged) was 35% and the “loss of Vitamin B12 after 2 hours” value [6] was “about 20%”. For the same molecule, the “handling state after exposure to the atmosphere” value ([7]; open to the atmosphere) was “became sticky” and the “weight gain (water) when left open” value ([7]; open to the atmosphere) was 14%.

In the case of 1,1,1-Ala-Asp-Asp, the “effectiveness compared with triaspartic acid on a molar basis” value [10] is reported as “about half as effective” and the “1st-order rate of ascorbate loss compared with Asp-Asp-Asp” value ([10]; 0.25 mM peptide, 63 μM cupric sulfate, 10 mM HEPES pH 7.2, 37) is reported as “almost twice as fast”.
